Columns and labels:
velvetleaf [1] = test: Test Example 5: herbicidal effect by foliage application, plastic box (Table 20, symbol M); assay type: in vivo, velvetleaf (Abutilon theophrasti); details: foliage application after 14-day growth, evaluated three weeks after application; for herbicidal effect on M: velvetleaf (evaluation grade 0-5): 320 g/ha
Method in brief: (§1)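 Foliar spray test: emulsion formulation diluted in water to a set application rate, sprayed onto 14-day-old plants raised in diluvial soil at 25° C to 30° C under glass. Both herbicidal effect and crop effect rated visually three weeks later.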

oval-leafed pondweed = test: Test Example 2: herbicidal activity, application during weed generation under submerged conditions (Table 17, symbol C); assay type: in vivo, oval-leafed pondweed (Monochoria vaginalis); details: AAH 320 g/ha; application during weed generation, submerged conditions
Method in brief: (§2)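 In this pot test, flooded alluvial soil (water depth 4 cm) holds all three species sown as a mixture. Once seedlings have one to two leaves, the compound's emulsion, thinned with water to the intended dose, is poured on the water; grading follows after three weeks on the earlier criteria.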

Japanese bulrush = test: Test Example 2: herbicidal activity, application during weed generation under submerged conditions (Table 17, symbol B); assay type: in vivo, Japanese bulrush (Schoenoplectus juncoides); details: AAH 320 g/ha; application during weed generation, submerged conditions
Method in brief: as §2

Italian ryegrass = test: Test Example 5: herbicidal effect by foliage application, plastic box (Table 20, symbol K); assay type: in vivo, Italian ryegrass (Lolium multiflorum); details: foliage application after 14-day growth, evaluated three weeks after application; for herbicidal effect on K: Italian ryegrass (evaluation grade 0-5): 320 g/ha
Method in brief: as §1

persian speedwell = test: Test Example 4: herbicidal effect by soil treatment (Table 19, symbol R); assay type: in vivo, Persian speedwell (Veronica persica); details: amount of applied herbicide 320 g/ha
Method in brief: (§3)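 Herbicidal effect was rated 3 weeks after treatment, using the scoring criteria of an earlier test. The compound, formulated as an emulsion and diluted in water to a set herbicide amount, had been sprayed uniformly on soil over freshly sown seeds. Growth took place in a greenhouse at 25° C. to 30° C.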

windgrass = test: Test Example 4: herbicidal effect by soil treatment (Table 19, symbol L); assay type: in vivo, windgrass (Apera spica-venti); details: amount of applied herbicide 320 g/ha
Method in brief: as §3

chickweed [2] = test: Test Example 5: herbicidal effect by foliage application, plastic box (Table 20, symbol P); assay type: in vivo, common chickweed (Stellaria media); details: foliage application after 14-day growth, evaluated three weeks after application; for herbicidal effect on P: chickweed (evaluation grade 0-5): 320 g/ha
Method in brief: as §1

chickweed [3] = test: Test Example 4: herbicidal effect by soil treatment (Table 19, symbol P); assay type: in vivo, common chickweed (Stellaria media); details: amount of applied herbicide 320 g/ha
Method in brief: as §3

velvetleaf [4] = test: Test Example 4: herbicidal effect by soil treatment (Table 19, symbol M); assay type: in vivo, velvetleaf (Abutilon theophrasti); details: amount of applied herbicide 320 g/ha
Method in brief: as §3

green foxtail [5] = test: Test Example 4: herbicidal effect by soil treatment (Table 19, symbol G); assay type: in vivo, green foxtail (Setaria viridis); details: amount of applied herbicide 320 g/ha
Method in brief: as §3

late watergrass [6] = test: Test Example 1: herbicidal activity, application before weed generation under submerged conditions (Table 16, symbol A); assay type: in vivo, late watergrass (Echinochloa oryzicola); details: amount of applied herbicide 320 g/ha
Method in brief: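 Submerged Wagner pots (alluvial soil, 4 cm water) sown with weed seeds and planted with 2.5-leaf rice seedlings; emulsifiable concentrate diluted in water applied to water surface on sowing day. Held in greenhouse at 25-30 °C; injury scored 0-5 by herbicidal rate after three weeks.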

rice flat sedge = test: Test Example 3: herbicidal effect by foliage application, Wagner pot (Table 18, symbol E); assay type: in vivo, rice flat sedge (Cyperus iria); details: 320 g/ha
Method in brief: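 Plants were sown in alluvial soil held under 0.1–0.5 cm standing water and grown 14 days in a greenhouse at 25–30 °C. An emulsifiable formulation, water-diluted to the set dose, was then sprayed onto the foliage, and effects were scored three weeks later using previously defined criteria.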

redroot pigweed = test: Test Example 5: herbicidal effect by foliage application, plastic box (Table 20, symbol N); assay type: in vivo, redroot pigweed (Amaranthus retroflexus); details: foliage application after 14-day growth, evaluated three weeks after application; for herbicidal effect on N: redroot pigweed (evaluation grade 0-5): 320 g/ha
Method in brief: as §1

green foxtail [7] = test: Test Example 5: herbicidal effect by foliage application, plastic box (Table 20, symbol G); assay type: in vivo, green foxtail (Setaria viridis); details: foliage application after 14-day growth, evaluated three weeks after application; for herbicidal effect on G: green foxtail (evaluation grade 0-5): 320 g/ha
Method in brief: as §1

lambsquarters = test: Test Example 4: herbicidal effect by soil treatment (Table 19, symbol O); assay type: in vivo, lambsquarters (Chenopodium album); details: amount of applied herbicide 320 g/ha
Method in brief: as §3

late watergrass [8] = test: Test Example 2: herbicidal activity, application during weed generation under submerged conditions (Table 17, symbol A); assay type: in vivo, late watergrass (Echinochloa oryzicola); details: AAH 320 g/ha; application during weed generation, submerged conditions
Method in brief: as §2

barnyard grass = test: Test Example 4: herbicidal effect by soil treatment (Table 19, symbol H); assay type: in vivo, barnyard grass (Echinochloa crus-galli); details: amount of applied herbicide 320 g/ha
Method in brief: as §3

[9] = amount of applied herbicide 320 g/ha

Compound	herbicidal effect on M: velvetleaf (evaluation grade 0-5) (velvetleaf [1])	herbicidal effect rating, C: oval-leafed pondweed (oval-leafed pondweed)	herbicidal effect rating, B: Japanese bulrush (Japanese bulrush)	herbicidal effect on K: Italian ryegrass (evaluation grade 0-5) (Italian ryegrass)	Herbicidal effect by soil treatment, R: persian speedwell (persian speedwell)	Herbicidal effect by soil treatment, L: windgrass (windgrass)	herbicidal effect on P: chickweed (evaluation grade 0-5) (chickweed [2])	Herbicidal effect by soil treatment, P: chickweed (chickweed [3])	Herbicidal effect by soil treatment, M: velvetleaf (velvetleaf [4])	Herbicidal effect by soil treatment, G: green foxtail (green foxtail [5])	Herbicidal effect, A: late watergrass (late watergrass [6])	herbicidal effect on rice flat sedge (E) (rice flat sedge)	herbicidal effect on N: redroot pigweed (evaluation grade 0-5) (redroot pigweed)	herbicidal effect on G: green foxtail (evaluation grade 0-5) (green foxtail [7])	Herbicidal effect by soil treatment, O: lambsquarters (lambsquarters)	herbicidal effect rating, A: late watergrass (late watergrass [8])	Herbicidal effect by soil treatment, H: barnyard grass (barnyard grass)	also measured
CCCC(=O)Oc1c(C)nn(C)c(=O)c1-c1c(-c2ccc(OC)cc2)sc2c(F)cccc12 [4-006]	5 (Herbicidal rate of 90% or more (almost completely withered))	2 (Herbicidal rate of 20% or more and less than 40%)	3 (Herbicidal rate of 40% or more and less than 70%)	4 (Herbicidal rate of 70% or more and less than 90%)	0 (Herbicidal rate of 5% or less (almost no effect))	0 (Herbicidal rate of 5% or less (almost no effect))	5 (Herbicidal rate of 90% or more (almost completely withered))	0 (Herbicidal rate of 5% or less (almost no effect))	1 (Herbicidal rate of 5% or more and less than 20%)	4 (Herbicidal rate of 70% or more and less than 90%)	3 (Herbicidal rate of 40% or more and less than 70%)	5 (Herbicidal rate of 90% or more (almost completely withered))	5 (Herbicidal rate of 90% or more (almost completely withered))	4 (Herbicidal rate of 70% or more and less than 90%)	4 (Herbicidal rate of 70% or more and less than 90%)	3 (Herbicidal rate of 40% or more and less than 70%)	4 (Herbicidal rate of 70% or more and less than 90%)	
CCCOc1ccc(-c2sc3c(Cl)cccc3c2-c2c(OC(=O)CCC)c(C)nn(C)c2=O)cc1 [4-028]	5 (Herbicidal rate of 90% or more (almost completely withered))	0 (Herbicidal rate of 5% or less (almost no effect))	3 (Herbicidal rate of 40% or more and less than 70%)	2 (Herbicidal rate of 20% or more and less than 40%)	1 (Herbicidal rate of 5% or more and less than 20%)	0 (Herbicidal rate of 5% or less (almost no effect))	5 (Herbicidal rate of 90% or more (almost completely withered))	0 (Herbicidal rate of 5% or less (almost no effect))	1 (Herbicidal rate of 5% or more and less than 20%)	0 (Herbicidal rate of 5% or less (almost no effect))	3 (Herbicidal rate of 40% or more and less than 70%)	5 (Herbicidal rate of 90% or more (almost completely withered))	5 (Herbicidal rate of 90% or more (almost completely withered))	3 (Herbicidal rate of 40% or more and less than 70%)	4 (Herbicidal rate of 70% or more and less than 90%)	3 (Herbicidal rate of 40% or more and less than 70%)	0 (Herbicidal rate of 5% or less (almost no effect))	
CCCC(=O)Oc1c(C)nn(C)c(=O)c1-c1c(-c2ccc(SC)cc2)sc2c(F)cccc12 [4-051]	5 (Herbicidal rate of 90% or more (almost completely withered))	0 (Herbicidal rate of 5% or less (almost no effect))	3 (Herbicidal rate of 40% or more and less than 70%)	4 (Herbicidal rate of 70% or more and less than 90%)	5 (Herbicidal rate of 90% or more (almost completely withered))	0 (Herbicidal rate of 5% or less (almost no effect))	5 (Herbicidal rate of 90% or more (almost completely withered))	4 (Herbicidal rate of 70% or more and less than 90%)	0 (Herbicidal rate of 5% or less (almost no effect))	1 (Herbicidal rate of 5% or more and less than 20%)	4 (Herbicidal rate of 70% or more and less than 90%)	3 (Herbicidal rate of 40% or more and less than 70%)	5 (Herbicidal rate of 90% or more (almost completely withered))	3 (Herbicidal rate of 40% or more and less than 70%)	4 (Herbicidal rate of 70% or more and less than 90%)	3 (Herbicidal rate of 40% or more and less than 70%)	0 (Herbicidal rate of 5% or less (almost no effect))	
Cc1nn(C)c(=O)c(-c2c(-c3ccccc3OC(F)(F)F)sc3c(Cl)cccc23)c1O [4-076]		0 (Herbicidal rate of 5% or less (almost no effect))	2 (Herbicidal rate of 20% or more and less than 40%)		3 (Herbicidal rate of 40% or more and less than 70%)	0 (Herbicidal rate of 5% or less (almost no effect))		1 (Herbicidal rate of 5% or more and less than 20%)	2 (Herbicidal rate of 20% or more and less than 40%)	0 (Herbicidal rate of 5% or less (almost no effect))	0 (Herbicidal rate of 5% or less (almost no effect))	3 (Herbicidal rate of 40% or more and less than 70%)			3 (Herbicidal rate of 40% or more and less than 70%)	3 (Herbicidal rate of 40% or more and less than 70%)	0 (Herbicidal rate of 5% or less (almost no effect))	Herbicidal effect by foliage application, M: velvetleaf (velvetleaf [1]; [9]): 4 (Herbicidal rate of 70% or more and less than 90%); Herbicidal effect by foliage application, K: Italian ryegrass (Italian ryegrass; [9]): 0 (Herbicidal rate of 5% or less (almost no effect)); Herbicidal effect by foliage application, P: chickweed (chickweed [2]; [9]): 5 (Herbicidal rate of 90% or more (almost completely withered)); Herbicidal effect by foliage application, N: redroot pigweed (redroot pigweed; [9]): 5 (Herbicidal rate of 90% or more (almost completely withered)); Herbicidal effect by foliage application, G: green foxtail (green foxtail [7]; [9]): 4 (Herbicidal rate of 70% or more and less than 90%)

Source: patent US20230085307A1, “PYRIDAZINONE COMPOUND AND HERBICIDE” (NISSAN CHEMICAL CORPORATION, priority 2019, published 2023)
